For test [1], the target named is T1, NavMs (Magnetococcus marinus, UniProt A0L5S6). As to the kind of experiment: cell-based.
In a further test the target is hNav1.2 (Homo sapiens, UniProt Q99250). The test can be described thus: Whole-cell patch-clamp INa inhibition, hNav1.2 in HEK293 cells. The class given is cell-based. (In general: Patch clamp records ionic current or voltage across a cell membrane.)
For the next test, the system named is ER. Conditions: cited from earlier work.
The target in test [2] is NavMs D220E mutant channel (Magnetococcus marinus, UniProt A0L5S6, D220E). The test can be described thus: cell-based. The format is cell-based.
In test [3] the target is NavMs E227D mutant channel (Magnetococcus marinus, UniProt A0L5S6, E227D). The test can be described thus: cell-based.
Test [4] deals with endogenous sodium currents of MDA-MB-231 cells (nNav1.5, Nav1.7). The test can be described thus: Voltage clamp of endogenous sodium currents in MDA-MB-231 cells. The format is cell-based. Conditions: Homo sapiens, MDA-MB-231, read-out: Potency of sodium current inhibition (IC50), MDA-MD-231 cells.
In test [5] the target is T1, NavMs. As to the kind of experiment: Mechanism and kinetics of NavMs INa inhibition. The format is cell-based.
The conditions of test [6]: cited from earlier work.
Test [7] concerns the target NavMs F208L mutant (NavMsL) (Magnetococcus marinus) (UniProt A0L5S6). As to the kind of experiment: crystal structure.

Consider seven compounds from PMC7980221 (Molecular Cell, 2021).

Like-named read-outs stand apart in the source and are kept apart here.

hNav1.2, sequence (Q99250 whole entry): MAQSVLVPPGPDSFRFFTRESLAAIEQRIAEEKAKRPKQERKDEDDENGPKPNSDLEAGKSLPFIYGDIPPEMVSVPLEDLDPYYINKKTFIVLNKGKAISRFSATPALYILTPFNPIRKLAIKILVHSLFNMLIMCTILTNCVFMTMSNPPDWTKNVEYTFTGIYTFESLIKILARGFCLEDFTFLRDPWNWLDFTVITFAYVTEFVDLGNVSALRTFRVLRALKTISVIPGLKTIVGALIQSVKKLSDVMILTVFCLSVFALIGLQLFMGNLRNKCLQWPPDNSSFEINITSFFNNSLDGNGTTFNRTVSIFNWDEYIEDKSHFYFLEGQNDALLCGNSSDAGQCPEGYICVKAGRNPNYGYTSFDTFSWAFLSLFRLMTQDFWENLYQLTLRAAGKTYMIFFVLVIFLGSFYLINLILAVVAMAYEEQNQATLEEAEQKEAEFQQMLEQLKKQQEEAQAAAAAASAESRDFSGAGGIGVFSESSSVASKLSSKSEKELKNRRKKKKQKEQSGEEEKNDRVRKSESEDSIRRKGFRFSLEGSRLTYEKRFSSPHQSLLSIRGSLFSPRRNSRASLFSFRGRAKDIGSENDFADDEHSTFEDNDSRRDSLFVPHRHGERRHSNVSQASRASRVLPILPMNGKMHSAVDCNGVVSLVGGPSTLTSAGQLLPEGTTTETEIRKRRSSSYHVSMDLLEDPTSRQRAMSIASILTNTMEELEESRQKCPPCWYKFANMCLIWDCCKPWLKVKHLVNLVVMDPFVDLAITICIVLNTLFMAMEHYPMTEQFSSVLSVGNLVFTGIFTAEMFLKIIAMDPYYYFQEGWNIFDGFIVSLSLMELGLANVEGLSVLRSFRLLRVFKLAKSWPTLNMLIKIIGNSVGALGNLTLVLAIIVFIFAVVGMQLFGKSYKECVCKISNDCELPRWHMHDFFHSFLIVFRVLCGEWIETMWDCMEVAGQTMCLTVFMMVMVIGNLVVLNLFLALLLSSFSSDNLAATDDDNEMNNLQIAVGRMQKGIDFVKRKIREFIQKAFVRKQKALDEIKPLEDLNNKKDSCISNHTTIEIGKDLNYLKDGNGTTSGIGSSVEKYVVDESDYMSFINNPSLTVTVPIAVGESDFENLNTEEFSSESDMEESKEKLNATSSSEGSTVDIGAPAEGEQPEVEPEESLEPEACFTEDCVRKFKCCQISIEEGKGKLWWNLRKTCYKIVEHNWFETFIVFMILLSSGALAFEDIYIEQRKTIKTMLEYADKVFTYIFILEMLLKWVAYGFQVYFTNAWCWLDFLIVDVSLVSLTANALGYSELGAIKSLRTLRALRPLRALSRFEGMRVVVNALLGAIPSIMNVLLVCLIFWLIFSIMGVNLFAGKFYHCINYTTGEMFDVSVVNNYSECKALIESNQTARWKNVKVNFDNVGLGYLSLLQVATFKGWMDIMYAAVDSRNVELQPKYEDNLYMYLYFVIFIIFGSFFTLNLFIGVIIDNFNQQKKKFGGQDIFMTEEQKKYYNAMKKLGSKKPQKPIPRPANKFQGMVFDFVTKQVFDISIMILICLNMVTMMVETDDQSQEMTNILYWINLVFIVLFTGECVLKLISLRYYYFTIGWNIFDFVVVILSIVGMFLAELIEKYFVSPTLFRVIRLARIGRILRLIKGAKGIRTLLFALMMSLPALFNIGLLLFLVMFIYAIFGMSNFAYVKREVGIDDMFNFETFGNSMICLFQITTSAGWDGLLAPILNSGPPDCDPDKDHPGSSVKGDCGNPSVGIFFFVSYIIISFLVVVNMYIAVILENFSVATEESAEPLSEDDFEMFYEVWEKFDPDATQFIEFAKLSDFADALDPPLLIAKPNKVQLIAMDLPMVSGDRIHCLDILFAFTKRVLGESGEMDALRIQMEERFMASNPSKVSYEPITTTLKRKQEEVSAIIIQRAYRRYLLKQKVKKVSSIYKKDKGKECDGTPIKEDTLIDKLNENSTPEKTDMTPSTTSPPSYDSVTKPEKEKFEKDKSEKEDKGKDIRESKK

As usually defined, the IC50 is the concentration that gives 50% inhibition. As for `CC/C(=C(\c1ccccc1)c1ccc(OCCNC)cc1)c1ccccc1` [NM-Tam, N-desmethyltamoxifen], the “Average slope of the Hill fit, NavMs, HEK cells” value (“Average slope … NavMs, HEK cells” below) at NavMs [1] is given as 1.1 ± 0.16 μM (1.11 ± 0.1). For the same compound, the IC50 turned out to be 1100 nM on NavMs [1] (read-out: Potency of sodium current inhibition (IC50), NavMs, HEK cells) and 3200 nM at hNav1.2 (read-out: Potency of sodium current inhibition (IC50), NaV1.2, HEK cells). The “Average slope of the Hill fit, NaV1.2, HEK cells” value (from here on “Average slope … NaV1.2, HEK cells”) on hNav1.2 was 3.2 ± 0.12 μM (0.96 ± 0.1). Also, in the test with ER, the “Affinity for ER, times lower than that of tamoxifen” value is roughly 100 times.
Consider `CC/C(=C(\c1ccc(O)cc1)c1ccc(OCCN(C)C)cc1)c1ccccc1` [4OH-Tam, 4-hydroxytamoxifen], for which, at NavMs [1], the IC50 was 297 ± 75 nM. Moreover, the “Average slope … NavMs, HEK cells” value on NavMs [1] (value in parentheses, error SD) stood at 1.14 ± 0.1. Besides, in test [2], the IC50 was 3600 ± 140 nM and the “Loss in free energy of binding (ΔG°)” value came to 1.5 kcal/mol. Also, the “Average slope of the Hill fit, D220E, HEK cells” value in test [2] (value in parentheses, error SD) came to 1.17 ± 0.1. The same compound showed an IC50 in test [3] of 2800 ± 160 nM. For the same compound, in [3] (value in parentheses, error SD), the “Average slope of the Hill fit, E227D, HEK cells” value is listed as 1.13 ± 0.1. On hNav1.2, this compound had an IC50 of 2100 ± 140 nM. In addition, the “Average slope … NaV1.2, HEK cells” value on hNav1.2 (value in parentheses, error SD) stood at 0.96 ± 0.1. Further, the IC50 in [4] was 890 nM. Also, on NavMs [5], the “Delay of rate of recovery from inactivation (τrec) following drug treatment” value is recorded as roughly 10 fold; the “INa inhibition with 7 ms vs 150 ms depolarization trains, times less” value amounted to 3.4 times; the “Kinetics of INa inhibition (τon), times slower than cadmium” value turned out to be 16 times; the “Shift of voltage dependence of activation and inactivation” value is “no significant shifts in either parameter”. Moreover, the “Potency in vivo as an anti-estrogen relative to tamoxifen” value in test [6] is recorded as 30- to 100 fold.
In general, stoichiometry N refers to the number of molecules, sites or subunits per partner or assembly. “NavMs F208L mutant (NavMsL) (from UniProt A0L5S6 1-274) (natural protein)” returned a stoichiometry N in [7] of 4.
Turning to `CC/C(=C(\c1ccc(O)cc1)c1ccc(OCCNC)cc1)c1ccccc1` [Endoxifen], the 50% inhibitory concentration (IC50) at NavMs [1] was 328 ± 89 nM; against hNav1.2, 3100 ± 130 nM. Also, the “Average slope … NavMs, HEK cells” value on NavMs [1] (value in parentheses, error SD) was 1.09 ± 0.1. The “Average slope … NaV1.2, HEK cells” value at hNav1.2 (value in parentheses, error SD) is recorded as 0.97 ± 0.1.
Regarding `CC/C(=C(\c1ccccc1)c1ccc(OCCN(C)C)cc1)c1ccccc1` [Tamoxifen], at hNav1.2, the “Average slope … NaV1.2, HEK cells” value is listed as 2.4 ± 0.11 μM (1.05 ± 0.1) and it took 2400 nM to reach half-maximal inhibition (IC50).
For the compound `CC/C(=C(/c1ccc(O)cc1)c1ccc(OCCN(C)C)cc1)c1ccccc1.Cl` [E-4OH-Tam, E-4-Hydroxytamoxifen hydrochloride], the “Average slope … NavMs, HEK cells” value on NavMs [1] (value in parentheses, error SD) worked out at 1.15 ± 0.1. Further, the “Average slope … NaV1.2, HEK cells” value on hNav1.2 (value in parentheses, error SD) worked out at 0.94 ± 0.1.
On to `CC/C(=C(\c1ccc(O)cc1)c1ccc(OCCN(C)C)cc1)c1ccccc1.Cl` [Z-4OH-Tam, Z-4-Hydroxytamoxifen hydrochloride], for which the “Average slope … NavMs, HEK cells” value at NavMs [1] (value in parentheses, error SD) is 1.05 ± 0.1. Besides, the “Average slope … NaV1.2, HEK cells” value at hNav1.2 (value in parentheses, error SD) is reported as 0.95 ± 0.1.
